Measurements from patent EP1561465A2, “Methods of use of fluoroquinolone compounds against bacteria” (LG Life Sciences, Ltd., priority 1999, dated 2001).

How the values were obtained:
Type in all cases: cell-based
Streptococcus pneumoniae = assay: MIC by E-test (broth microdilution for gemifloxacin), 107 pneumococcal carrier isolates, Athens 1998; conditions: E-test; for MIC Range: in µg/mL (unit assumed); for MIC50 / MIC90: unit assumed
Description: Susceptibility testing was performed by agar dilution or epsilometer method (E-test), as recommended by the NCCLS. […] The susceptibility profiles of the strains were assessed using the Epsilometer method (E-test). The isolates were subdivided into two groups according to their penicillin susceptibility patterns (penicillin-susceptible and penicillin-intermediate.

Enterococcus faecalis = assay: MIC by agar macrodilution (NCCLS), 373 Gram positive isolates, Athens 1998
Staphylococcus aureus = assay: as above; conditions: Methicillin-susceptible Staphylococcus aureus (n = 85)
Enterococcus faecium = assay: as above
[1] = Penicillin-intermediate S. pneumoniae (n = 24)
[2] = Penicillin-susceptible S. pneumoniae (n = 107)
[3] = number of isolates at MIC […], n = 81
[4] = number of isolates with MIC […] µg/ml
[5] = number of isolates with MIC […]
[6] = number of isolates at MIC […], n = 14

Teicoplanin
MIC Range (Streptococcus pneumoniae; [1]): 0.023-0.125
MIC50 (Streptococcus pneumoniae; [1]): 0.064 µg/mL
MIC90 (Streptococcus pneumoniae; [1]): 0.125 µg/mL
MIC Range (Streptococcus pneumoniae; [2]): 0.023-3
MIC50 (Streptococcus pneumoniae; [2]): 0.064 µg/mL
MIC90 (Streptococcus pneumoniae; [2]): 0.38 µg/mL
MIC50 (Enterococcus faecalis; n = 81 isolates): 0.5 µg/mL
MIC90 (Enterococcus faecalis; n = 81 isolates): 1 µg/mL
MIC Range (Enterococcus faecalis; n = 81 isolates): 0.06 to 16 µg/mL
MIC distribution (µg/ml) 0.03 (Enterococcus faecalis; number of isolates at MIC 0.03 µg/ml, n = 81): 0
MIC distribution (µg/ml) 0.06 (Enterococcus faecalis; number of isolates at MIC 0.06 µg/ml, n = 81): 2
MIC distribution (µg/ml) 0.5 (Enterococcus faecalis; number of isolates at MIC 0.5 µg/ml, n = 81): 35
MIC distribution (µg/ml) 1 (Enterococcus faecalis; number of isolates at MIC 1 µg/ml, n = 81): 27
MIC distribution (µg/ml) 2 (Enterococcus faecalis; number of isolates at MIC 2 µg/ml, n = 81): 4
MIC distribution (µg/ml) 4 (Enterococcus faecalis; number of isolates at MIC 4 µg/ml, n = 81): 0
MIC distribution (µg/ml) 8 (Enterococcus faecalis; number of isolates at MIC 8 µg/ml, n = 81): 0
MIC distribution (µg/ml) 16 (Enterococcus faecalis; number of isolates at MIC 16 µg/ml, n = 81): 1
MIC distribution (µg/ml) 0.125 (Enterococcus faecalis; [3]): 6
MIC distribution (µg/ml) 0.25 (Enterococcus faecalis; [3]): 6
MIC distribution (µg/ml) ≤0.015 (Enterococcus faecalis; number of isolates at MIC ≤[…], n = 81): 0
MIC distribution (µg/ml) ≥32 (Enterococcus faecalis; number of isolates at MIC ≥32 µg/ml, n = 81): 0
MIC50 (Staphylococcus aureus): 1 µg/mL
MIC90 (Staphylococcus aureus): 2 µg/mL
MIC Range (Staphylococcus aureus): 0.5 to 8 µg/mL
MIC distribution (µg/ml) 0.06 (Staphylococcus aureus; number of isolates with MIC 0.06 µg/ml): 0
MIC distribution (µg/ml) 0.5 (Staphylococcus aureus; number of isolates with MIC 0.5 µg/ml): 26
MIC distribution (µg/ml) 1 (Staphylococcus aureus; number of isolates with MIC 1 µg/ml): 40
MIC distribution (µg/ml) 2 (Staphylococcus aureus; number of isolates with MIC 2 µg/ml): 17
MIC distribution (µg/ml) 4 (Staphylococcus aureus; number of isolates with MIC 4 µg/ml): 0
MIC distribution (µg/ml) 8 (Staphylococcus aureus; number of isolates with MIC 8 µg/ml): 2
MIC distribution (µg/ml) >64 (Staphylococcus aureus; number of isolates with MIC >[…] µg/ml): 0
MIC distribution (µg/ml) 16 (Staphylococcus aureus; [4]): 0
MIC distribution (μg/ml) 32 (Staphylococcus aureus; [4]): 0
MIC distribution (μg/ml) 64 (Staphylococcus aureus; [4]): 0
MIC distribution (µg/ml) 0.125 (Staphylococcus aureus; [5]): 0
MIC distribution (µg/ml) 0.25 (Staphylococcus aureus; [5]): 0
MIC distribution (µg/ml) ≤0.03 (Staphylococcus aureus; number of isolates with MIC ≤0.03 µg/ml): 0
MIC50 (Enterococcus faecium; n = 14 isolates): 0.5 µg/mL
MIC90 (Enterococcus faecium; n = 14 isolates): 1 µg/mL
MIC Range (Enterococcus faecium; n = 14 isolates): 0.25 to 4 µg/mL
MIC distribution (µg/ml) 0.03 (Enterococcus faecium; number of isolates at MIC 0.03 µg/ml, n = 14): 0
MIC distribution (µg/ml) 0.06 (Enterococcus faecium; number of isolates at MIC 0.06 µg/ml, n = 14): 0
MIC distribution (µg/ml) 0.5 (Enterococcus faecium; number of isolates at MIC 0.5 µg/ml, n = 14): 4
MIC distribution (µg/ml) 1 (Enterococcus faecium; number of isolates at MIC 1 µg/ml, n = 14): 6
MIC distribution (µg/ml) 2 (Enterococcus faecium; number of isolates at MIC 2 µg/ml, n = 14): 0
MIC distribution (µg/ml) 4 (Enterococcus faecium; number of isolates at MIC 4 µg/ml, n = 14): 1
MIC distribution (µg/ml) 8 (Enterococcus faecium; number of isolates at MIC 8 µg/ml, n = 14): 0
MIC distribution (µg/ml) 16 (Enterococcus faecium; number of isolates at MIC 16 µg/ml, n = 14): 0
MIC distribution (µg/ml) 0.125 (Enterococcus faecium; [6]): 0
MIC distribution (µg/ml) 0.25 (Enterococcus faecium; [6]): 3
MIC distribution (µg/ml) ≤0.015 (Enterococcus faecium; number of isolates at MIC ≤[…], n = 14): 0
MIC distribution (µg/ml) ≥32 (Enterococcus faecium; number of isolates at MIC ≥32 µg/ml, n = 14): 0
